The values that follow come from patent US20210094954A1, “PREPARATION METHODS AND APPLICATIONS OF 3,5-DISUBSTITUTED METHYLPYRAZOLO[1,5-A]PYRIMIDINE-7-HYDROXYLIC SALTS” (priority 2019, published 2021).

What all share (format): cell-based
The subject of assay [1] is Bacillus subtilis 168. As to the kind of experiment: microbe, parasite or virus in culture. As to conditions: Bacillus subtilis, 168; 37° C., 24 hours; read-out: MIC values of in vitro antibacterial test results.
Assay [2] relates to Streptococcus pneumoniae 6303 (PRSP). In words: microbe, parasite or virus in culture. As to conditions: Streptococcus pneumoniae, PRSP, 24 h, read-out: MIC values of in vitro antibacterial test results.
The subject of assay [3] is Staphylococcus aureus 29231. As to the kind of experiment: microbe, parasite or virus in culture. As to conditions: Staphylococcus aureus, 29231; 37° C., 24 hours; read-out: MIC values of in vitro antibacterial test results.
Assay [4] relates to Peel fungus. In words: organism not typed. As to conditions: 37° C., 24 hours; read-out: MIC values of in vitro antibacterial test results.
Assay [5] concerns Diphtheria bacilli. As to the kind of experiment: organism not typed. As to conditions: 37° C., 24 hours; read-out: MIC values of in vitro antibacterial test results.
Assay [6] relates to F2518(VRE), Staphylococcus aureus resistant strain 43300(MRSA), 703 (MRSA), pneumococcal resistance bacteria 6303(PRSP). In words: microbe, parasite or virus in culture. As to conditions: read-out: MIC values (μM).
Assay [7] relates to Oral Candida. As to the kind of experiment: microbe, parasite or virus in culture. The note with it: Candida.
The subject of assay [8] is Staphylococcus aureus 703(MRSA). In words: microbe, parasite or virus in culture. As to conditions: Staphylococcus aureus, MRSA, 24 h, read-out: MIC values of in vitro antibacterial test results.
The subject of assay [9] is Enterococcus faecalis 29212. As to the kind of experiment: microbe, parasite or virus in culture. The note with it: Enterococcus faecalis, 29212; 37° C., 24 hours; read-out: MIC values of in vitro antibacterial test results.
The test system of assay [10] is Streptococcus pneumoniae M2. In words: microbe, parasite or virus in culture. The note with it: Streptococcus pneumoniae, M2; 37° C., 24 hours; read-out: MIC values of in vitro antibacterial test results.
The subject of assay [11] is Clostridium perfringens. As to the kind of experiment: microbe, parasite or virus in culture. The note with it: Clostridium perfringens, 24 h, read-out: MIC values of in vitro antibacterial test results.
Assay [12] relates to Staphylococcus aureus 43300(MRSA). In words: microbe, parasite or virus in culture. The note with it: Staphylococcus aureus, MRSA, 24 h, read-out: MIC values of in vitro antibacterial test results.
Assay [13] relates to Streptococcus pneumoniae 10351. As to the kind of experiment: microbe, parasite or virus in culture. As to conditions: Streptococcus pneumoniae, 10351; 37° C., 24 hours; read-out: MIC values of in vitro antibacterial test results.
The test system of assay [14] is Streptococcus agalactia B group. In words: microbe, parasite or virus in culture. The note with it: Streptococcus; 37° C., 24 hours; read-out: MIC values of in vitro antibacterial test results.
Assay [15] has as its system Bacillus anthracis Bacillus 1. As to the kind of experiment: microbe, parasite or virus in culture. The note with it: Bacillus anthracis, 24 h, read-out: MIC values of in vitro antibacterial test results.
Assay [16] relates to Enterococcus faecalis F2518(VRE). As to the kind of experiment: microbe, parasite or virus in culture. As to conditions: Enterococcus faecalis, VRE, 24 h, read-out: MIC values of in vitro antibacterial test results.
For assay [17], the system named is Bacillus cereus 2. In words: microbe, parasite or virus in culture. The note with it: Bacillus cereus, 2; 37° C., 24 hours; read-out: MIC values of in vitro antibacterial test results.
Where [18] appears, read: 37° C., 24 hours, read-out: MIC values of in vitro antibacterial test results.

Molecules are shown by their SMILES. Like-named read-outs stand apart in the source and are kept apart here.

Consider `Cc1nn2c([O-])cc(-c3ccc(C#N)nc3)nc2c1-c1ccc(F)cc1F.[K+]` [Compound 27, Potassium 5-(6-cyanopyridin-3-yl)-3-(2,4-difluorophenyl)-2-methylpyrazolo[1,5-α]pyrimidin-7-olate], for which the MIC was less than 100 µg/mL in [1]; less than 100 µg/mL in assay [2]; less than 100 µg/mL in [3]; more than 150 µg/mL in assay [4]; less than 150 µg/mL in [5]; less than 100 µg/mL in assay [6]. In addition, the MIC is less than 100 µg/mL in assay [7] (read-out: MIC values (μM)); less than 100 µg/mL in [7] (setting [18]); less than 100 µg/mL in [8]; less than 100 µg/mL in assay [9]; less than 100 µg/mL in assay [10]; less than 150 µg/mL in assay [11]. The MIC in [12] was less than 150 µg/mL; in assay [13], less than 100 µg/mL; in [14], more than 150 µg/mL; in assay [15] it was more than 150 µg/mL; in [16] it was less than 150 µg/mL; in [17], less than 100 µg/mL.

Consider `Cc1nn2c([O-])cc(-c3ccc(C(N)=O)cc3)nc2c1-c1ccc(F)cc1F.[Na+]` [Compound 11, Sodium 5-(4-carbamoylphenyl)-3-(2,4-difluorophenyl)-2-methylpyrazolo[1,5-α]pyrimidin-7-olate], for which the MIC in [1] was more than 150 µg/mL; in assay [2] it was more than 150 µg/mL; in assay [3], more than 150 µg/mL; in assay [4], less than 150 µg/mL; in assay [5], more than 150 µg/mL; in [6], less than 100 µg/mL. The MIC in [7] (setting [18]) was less than 150 µg/mL; in [8], less than 150 µg/mL; in assay [9], less than 150 µg/mL; in [10], less than 100 µg/mL; in assay [11] it was more than 150 µg/mL; in assay [12], less than 100 µg/mL. Also, the MIC in assay [13] is more than 150 µg/mL; in [14], more than 150 µg/mL; in assay [15] it was more than 150 µg/mL; in assay [16], less than 150 µg/mL; in [17], less than 150 µg/mL.

For the compound `Cc1nn2c([O-])cc(-c3ccc([N+](=O)[O-])cc3)nc2c1-c1ccc(F)cc1F.[K+]` [Compound 23, Potassium 3-(2,4-difluorophenyl)-2-methyl-5-(4-nitrophenyl)pyrazolo[1,5-α]pyrimidin-7-olate], the MIC in assay [1] was more than 150 µg/mL; in assay [2], more than 150 µg/mL; in assay [3], more than 150 µg/mL; in assay [4] it was less than 150 µg/mL; in assay [5], more than 150 µg/mL; in assay [6] it was less than 100 µg/mL. The MIC in [7] (read-out: MIC values (μM)) was less than 100 µg/mL; in [7] (setting [18]), less than 100 µg/mL; in assay [8], less than 150 µg/mL; in [9], less than 150 µg/mL; in assay [10], less than 100 µg/mL; in assay [11], more than 150 µg/mL. In addition, the MIC was less than 100 µg/mL in assay [12]; more than 150 µg/mL in assay [13]; more than 150 µg/mL in [14]; more than 150 µg/mL in assay [15]; less than 150 µg/mL in [16]; less than 100 µg/mL in assay [17].

With `Cc1nn2c([O-])cc(-c3ccc(C(F)(F)F)cc3)nc2c1-c1ccc(F)cc1F.[K+]` [Compound 22, potassium 3-(2,4-difluorophenyl)-2-methyl-5-(4-(trifluoromethyl)phenyl)pyrazolo[1,5-α]pyrimidin-7-olate], the MIC in assay [1] was less than 100 µg/mL; in assay [2], less than 150 µg/mL; in assay [3] it was less than 100 µg/mL; in assay [4], less than 150 µg/mL; in [5], more than 150 µg/mL; in [6], less than 100 µg/mL. Besides, the MIC in [7] (read-out: MIC values (μM)) is less than 100 µg/mL; in assay [7] (setting [18]), less than 100 µg/mL; in assay [8], less than 100 µg/mL; in assay [9], less than 150 µg/mL; in assay [10] it was less than 100 µg/mL; in assay [11], more than 150 µg/mL. Further, the MIC in assay [12] was less than 100 µg/mL; in [13], less than 150 µg/mL; in assay [14] it was less than 150 µg/mL; in assay [15], more than 150 µg/mL; in assay [16], less than 150 µg/mL; in assay [17], less than 100 µg/mL.

On to `Cc1nn2c([O-])cc(-c3ccc(C(F)(F)F)cc3)nc2c1-c1ccc(F)cc1F.[Na+]` [Compound 1, sodium 3-(2,4-difluorophenyl)-2-methyl-5-(4-(trifluoromethyl)-phenyl)pyrazolo[1,5-α]pyrimidin-7-olate], for which the MIC in assay [1] is less than 100 µg/mL; in assay [2], less than 100 µg/mL; in [3], less than 100 µg/mL; in assay [4] it was more than 150 µg/mL; in assay [5] it was more than 150 µg/mL; in assay [6], less than 100 µg/mL. Also, the MIC in assay [7] (read-out: MIC values (μM)) was less than 100 µg/mL; in assay [7] (setting [18]), less than 100 µg/mL; in assay [8], less than 150 µg/mL; in [9], less than 100 µg/mL; in assay [10], less than 100 µg/mL; in assay [11], more than 150 µg/mL. The MIC was less than 100 µg/mL in assay [12]; less than 100 µg/mL in assay [13]; less than 150 µg/mL in assay [14]; more than 150 µg/mL in [15]; less than 150 µg/mL in assay [16]; less than 100 µg/mL in assay [17].

As to `Cc1nn2c([O-])cc(-c3ccc(C(F)(F)F)nc3)nc2c1-c1ccc(F)cc1F.[Na+]` [Compound 14, Sodium 3-(2,4-difluorophenyl)-2-methyl-5-(6-(trifluoromethyl)pyridin-3-yl)pyrazolo[1,5-α] pyrimidin-7-olate], the MIC was less than 100 µg/mL in assay [1]; less than 100 µg/mL in assay [2]; less than 100 µg/mL in [3]; more than 150 µg/mL in [4]; more than 150 µg/mL in assay [5]; less than 100 µg/mL in [6]. For the same compound, the MIC in [7] (read-out: MIC values (μM)) was less than 100 µg/mL; in assay [7] (setting [18]) it was less than 100 µg/mL; in assay [8], less than 100 µg/mL; in assay [9], less than 100 µg/mL; in [10], less than 150 µg/mL; in assay [11] it was more than 150 µg/mL. In addition, the MIC in assay [12] was less than 150 µg/mL; in assay [13] it was less than 100 µg/mL; in [14], more than 150 µg/mL; in assay [15] it was more than 150 µg/mL; in assay [16], less than 150 µg/mL; in assay [17] it was less than 100 µg/mL.

Turning to `Cc1nn2c([O-])cc(-c3ccc(C(=O)[O-])cc3)nc2c1-c1ccc(F)cc1F.[Na+].[Na+]` [Compound 7, Disodium 4-(3-(2,4-difluorophenyl)-2-methyl-7-hydroxy-pyrazolo[1,5-α]pyrimidin-5-yl)benzoate], the MIC in [1] is more than 150 µg/mL; in [2], more than 150 µg/mL; in [3] it was more than 150 µg/mL; in [4] it was less than 150 µg/mL; in [5] it was more than 150 µg/mL; in [6] it was less than 100 µg/mL. The MIC in assay [7] (setting [18]) is more than 150 µg/mL; in assay [8], less than 150 µg/mL; in assay [9] it was less than 150 µg/mL; in assay [10], less than 100 µg/mL; in [11] it was more than 150 µg/mL; in assay [12], less than 100 µg/mL. For the same compound, the MIC in assay [13] was more than 150 µg/mL; in [14], more than 150 µg/mL; in assay [15], more than 150 µg/mL; in assay [16], less than 150 µg/mL; in assay [17], less than 150 µg/mL.

With `Cc1nn2c([O-])cc(-c3ccc(F)cc3F)nc2c1-c1ccc(F)cc1F.[Na+]` [Compound 12, Sodium 3,5-bis(2,4-difluorophenyl)-2-methylpyrazolo[1,5-α]pyrimidin-7-olate], the MIC is more than 150 µg/mL in [1]; more than 150 µg/mL in assay [2]; more than 150 µg/mL in assay [3]; less than 150 µg/mL in assay [4]; more than 150 µg/mL in assay [5]; less than 100 µg/mL in assay [6]. The MIC in [7] (setting [18]) is less than 150 µg/mL; in assay [8] it was less than 150 µg/mL; in assay [9], less than 150 µg/mL; in [10], less than 150 µg/mL; in assay [11], more than 150 µg/mL; in assay [12], less than 150 µg/mL. In addition, the MIC is more than 150 µg/mL in assay [13]; more than 150 µg/mL in assay [14]; more than 150 µg/mL in assay [15]; less than 150 µg/mL in [16]; less than 100 µg/mL in assay [17].
